Measured values taken from PubChem BioAssay (NCI).
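Dose response: 5 concentrations. Exposure: 48 h. Format: 96-well plates. Endpoint: linear interpolation; highest concentration if not reached. GI50 marks 50% less growth. TGI: concentration producing complete growth inhibition.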

Key:
Assay in all cases: NCI anticancer screen, dose series, 48 h
NCI-H460 lung = tested on: NCI-H460 lung
SF-295 CNS = tested on: SF-295 CNS
CAKI-1 renal = tested on: CAKI-1 renal
SK-MEL-28 melanoma = tested on: SK-MEL-28 melanoma
SNB-75 CNS = tested on: SNB-75 CNS
SR leukemia = tested on: SR leukemia
TK-10 renal = tested on: TK-10 renal
OVCAR-4 ovarian = tested on: OVCAR-4 ovarian
A549 NSCLC = tested on: A549 NSCLC
ACHN renal = tested on: ACHN renal
OVCAR-5 ovarian = tested on: OVCAR-5 ovarian
HOP-92 NSCLC = tested on: HOP-92 NSCLC
IGROV1 ovarian = tested on: IGROV1 ovarian
SK-MEL-2 melanoma = tested on: SK-MEL-2 melanoma
SF-539 CNS = tested on: SF-539 CNS
786-0 renal = tested on: 786-0 renal
NCI-H226 lung = tested on: NCI-H226 lung
NCI-H522 lung = tested on: NCI-H522 lung
MCF7 breast = tested on: MCF7 breast
CCRF-CEM leukemia = tested on: CCRF-CEM leukemia
HS 578T breast = tested on: HS 578T breast
SNB-19 CNS = tested on: SNB-19 CNS
RPMI-8226 leukemia = tested on: RPMI-8226 leukemia
K-562 leukemia = tested on: K-562 leukemia
HT29 colon = tested on: HT29 colon
SW-620 colon = tested on: SW-620 colon
NCI/ADR-RES ovarian = tested on: NCI/ADR-RES ovarian
SK-MEL-5 melanoma = tested on: SK-MEL-5 melanoma
DU-145 prostate = tested on: DU-145 prostate
OVCAR-8 ovarian = tested on: OVCAR-8 ovarian
HCT-15 colon = tested on: HCT-15 colon
KM12 colon = tested on: KM12 colon
SF-268 CNS = tested on: SF-268 CNS
M14 melanoma = tested on: M14 melanoma
U251 CNS = tested on: U251 CNS
HOP-62 NSCLC = tested on: HOP-62 NSCLC
MOLT-4 leukemia = tested on: MOLT-4 leukemia
LOX IMVI melanoma = tested on: LOX IMVI melanoma
SK-OV-3 ovarian = tested on: SK-OV-3 ovarian
MDA-MB-231 breast = tested on: MDA-MB-231 breast
A498 renal = tested on: A498 renal
PC-3 prostate = tested on: PC-3 prostate
OVCAR-3 ovarian = tested on: OVCAR-3 ovarian
HL-60(TB) leukemia = tested on: HL-60(TB) leukemia
MALME-3M melanoma = tested on: MALME-3M melanoma
NCI-H23 lung = tested on: NCI-H23 lung
RXF 393 renal = tested on: RXF 393 renal
T-47D breast = tested on: T-47D breast
SN12C renal = tested on: SN12C renal
HCC-2998 colon = tested on: HCC-2998 colon
UACC-62 melanoma = tested on: UACC-62 melanoma
MDA-MB-435 = tested on: MDA-MB-435
COLO 205 colon = tested on: COLO 205 colon
HCT-116 colon = tested on: HCT-116 colon
BT-549 breast = tested on: BT-549 breast
UACC-257 melanoma = tested on: UACC-257 melanoma
UO-31 renal = tested on: UO-31 renal
EKVX NSCLC = tested on: EKVX NSCLC

C[C@H](c1ccc(F)cc1CCCC(=O)O)N(c1cc(F)ccc1F)S(=O)(=O)c1ccc(Cl)cc1
GI50 (NCI-H460 lung): 20.6 µM
TGI (NCI-H460 lung): 52.8 µM
GI50 (SF-295 CNS): 23.1 µM
TGI (SF-295 CNS): > 75.9 µM
GI50 (CAKI-1 renal): 17.6 µM
TGI (CAKI-1 renal): > 81.2 µM
GI50 (SK-MEL-28 melanoma): 22.1 µM
TGI (SK-MEL-28 melanoma): 65.5 µM
GI50 (SNB-75 CNS): 29.4 µM
TGI (SNB-75 CNS): > 91.3 µM
GI50 (SR leukemia): 30.4 µM
TGI (SR leukemia): 98.1 µM
GI50 (TK-10 renal): 55.3 µM
TGI (TK-10 renal): > 100 µM
GI50 (OVCAR-4 ovarian): 26.8 µM
TGI (OVCAR-4 ovarian): > 89.9 µM
GI50 (A549 NSCLC): 28.1 µM
TGI (A549 NSCLC): > 100 µM
GI50 (ACHN renal): 30.8 µM
TGI (ACHN renal): > 100 µM
GI50 (OVCAR-5 ovarian): 43.8 µM
TGI (OVCAR-5 ovarian): > 100 µM
GI50 (HOP-92 NSCLC): 17.9 µM
TGI (HOP-92 NSCLC): > 82.5 µM
GI50 (IGROV1 ovarian): 31.7 µM
TGI (IGROV1 ovarian): > 92.4 µM
GI50 (SK-MEL-2 melanoma): 19.7 µM
TGI (SK-MEL-2 melanoma): 41.7 µM
GI50 (SF-539 CNS): 24.5 µM
TGI (SF-539 CNS): 67.9 µM
GI50 (786-0 renal): 31.2 µM
TGI (786-0 renal): > 100 µM
GI50 (NCI-H226 lung): 31 µM
TGI (NCI-H226 lung): > 100 µM
GI50 (NCI-H522 lung): 26 µM
TGI (NCI-H522 lung): > 93.3 µM
GI50 (MCF7 breast): 31.2 µM
TGI (MCF7 breast): > 100 µM
GI50 (CCRF-CEM leukemia): 19.3 µM
TGI (CCRF-CEM leukemia): > 69.7 µM
GI50 (HS 578T breast): 20 µM
TGI (HS 578T breast): > 85 µM
GI50 (SNB-19 CNS): 27.9 µM
TGI (SNB-19 CNS): > 100 µM
GI50 (RPMI-8226 leukemia): 30 µM
TGI (RPMI-8226 leukemia): > 88.5 µM
GI50 (K-562 leukemia): 36.6 µM
TGI (K-562 leukemia): > 100 µM
GI50 (HT29 colon): 35.3 µM
TGI (HT29 colon): > 100 µM
GI50 (SW-620 colon): 34.6 µM
TGI (SW-620 colon): > 100 µM
GI50 (NCI/ADR-RES ovarian): 30.6 µM
TGI (NCI/ADR-RES ovarian): > 100 µM
GI50 (SK-MEL-5 melanoma): 17.5 µM
TGI (SK-MEL-5 melanoma): 38 µM
GI50 (DU-145 prostate): 34 µM
TGI (DU-145 prostate): > 100 µM
GI50 (OVCAR-8 ovarian): 38 µM
TGI (OVCAR-8 ovarian): > 100 µM
GI50 (HCT-15 colon): 22.3 µM
TGI (HCT-15 colon): 74.7 µM
GI50 (KM12 colon): 26.5 µM
TGI (KM12 colon): > 100 µM
GI50 (SF-268 CNS): 34.5 µM
TGI (SF-268 CNS): > 100 µM
GI50 (M14 melanoma): 22.6 µM
TGI (M14 melanoma): > 80.2 µM
GI50 (U251 CNS): 31.9 µM
TGI (U251 CNS): > 100 µM
GI50 (HOP-62 NSCLC): 24.4 µM
TGI (HOP-62 NSCLC): > 70.2 µM
GI50 (MOLT-4 leukemia): 22.8 µM
TGI (MOLT-4 leukemia): > 83 µM
GI50 (LOX IMVI melanoma): 29.2 µM
TGI (LOX IMVI melanoma): > 100 µM
GI50 (SK-OV-3 ovarian): 42.3 µM
TGI (SK-OV-3 ovarian): > 100 µM
GI50 (MDA-MB-231 breast): 31.4 µM
TGI (MDA-MB-231 breast): > 100 µM
GI50 (A498 renal): 13.1 µM
TGI (A498 renal): 57.6 µM
GI50 (PC-3 prostate): 26.5 µM
TGI (PC-3 prostate): > 100 µM
GI50 (OVCAR-3 ovarian): 19.6 µM
TGI (OVCAR-3 ovarian): 44 µM
GI50 (HL-60(TB) leukemia): 30.7 µM
TGI (HL-60(TB) leukemia): > 95.1 µM
GI50 (MALME-3M melanoma): 23.5 µM
TGI (MALME-3M melanoma): 93.8 µM
GI50 (NCI-H23 lung): 19.6 µM
TGI (NCI-H23 lung): 59 µM
GI50 (RXF 393 renal): 21 µM
TGI (RXF 393 renal): > 79.7 µM
GI50 (T-47D breast): 19.2 µM
TGI (T-47D breast): > 83.9 µM
GI50 (SN12C renal): 32.2 µM
TGI (SN12C renal): > 100 µM
GI50 (HCC-2998 colon): 20.9 µM
TGI (HCC-2998 colon): 59.4 µM
GI50 (UACC-62 melanoma): 14.2 µM
TGI (UACC-62 melanoma): 39.2 µM
GI50 (MDA-MB-435): 20.6 µM
TGI (MDA-MB-435): 51.3 µM
GI50 (COLO 205 colon): 33.7 µM
TGI (COLO 205 colon): > 92.9 µM
GI50 (HCT-116 colon): 19.4 µM
TGI (HCT-116 colon): 47.1 µM
GI50 (BT-549 breast): 22.4 µM
TGI (BT-549 breast): 68.8 µM
GI50 (UACC-257 melanoma): 26.9 µM
TGI (UACC-257 melanoma): > 100 µM
GI50 (UO-31 renal): 25.4 µM
TGI (UO-31 renal): > 100 µM
GI50 (EKVX NSCLC): 30 µM
TGI (EKVX NSCLC): > 100 µM
